Assay results: paper PMC11650849, “Brain endothelial permeability, transport, and flow assessed over 10 orders of magnitude using the in situ brain perfusion technique” (Fluids and Barriers of the CNS, 2024)
Read-outs that look alike come from different tables or passages of the source.

What was measured:
Lat-1 = Lat-1 (Rattus norvegicus, UniProt Q63016)
[1] = Octanol/water partition and distribution coefficients; conditions: for Log Doct 7.4: octanol distribution coefficient, pH 7.4; for Log Poct: octanol partition coefficient
Choline transporter = conditions: facilitated nutrients
[2] = Neutral fraction at pH 7.4 calculated from pKa; assay type: physicochemical; conditions: neutral fraction at perfusion fluid pH 7.40, calculated from pKa
[3] = rat
[4] = for Brain Kin: calculated at brain blood flow […] and rat serum fu; for Extraction (unbound) / Brain vascular extraction (total): calculated at brain blood flow […]; for Extraction (unbound): free drug; for Brain vascular extraction (total): with rat serum fu
[5] = ref Hansch et al. [123], Avdeef [46] or other sources, cited from earlier work; for Log Poct: octanol partition coefficient
[6] = rat in vivo measurements; cited from earlier work
[7] = rat in vivo measurements; cited from earlier work; remark: listed apart in the source
[8] = In situ rat brain perfusion (brain uptake Kin, extraction E, BBB PS)
[9] = rat, in vivo, pH 7.4
in vivo = conditions: rat, pH 7.4
[10] = LAT1 substrates, tracer concentration
[11] = LAT1 substrates, tracer concentration, perfusion 15-30 s

Lat-1, sequence (Q63016 whole entry): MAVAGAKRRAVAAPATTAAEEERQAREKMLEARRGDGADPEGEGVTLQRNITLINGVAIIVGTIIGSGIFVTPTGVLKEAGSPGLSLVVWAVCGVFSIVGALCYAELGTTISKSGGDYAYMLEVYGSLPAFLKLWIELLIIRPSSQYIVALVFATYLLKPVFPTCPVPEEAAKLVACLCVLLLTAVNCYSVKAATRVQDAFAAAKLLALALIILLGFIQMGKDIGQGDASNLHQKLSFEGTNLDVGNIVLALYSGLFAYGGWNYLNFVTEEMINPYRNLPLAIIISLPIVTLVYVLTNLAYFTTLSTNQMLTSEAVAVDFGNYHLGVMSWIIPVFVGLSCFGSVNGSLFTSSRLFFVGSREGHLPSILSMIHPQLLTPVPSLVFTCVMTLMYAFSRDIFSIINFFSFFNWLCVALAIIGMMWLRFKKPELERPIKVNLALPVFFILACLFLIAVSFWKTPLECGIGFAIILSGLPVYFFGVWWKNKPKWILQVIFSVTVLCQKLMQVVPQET
Lat-1, sequence (Q794F9 whole entry partner): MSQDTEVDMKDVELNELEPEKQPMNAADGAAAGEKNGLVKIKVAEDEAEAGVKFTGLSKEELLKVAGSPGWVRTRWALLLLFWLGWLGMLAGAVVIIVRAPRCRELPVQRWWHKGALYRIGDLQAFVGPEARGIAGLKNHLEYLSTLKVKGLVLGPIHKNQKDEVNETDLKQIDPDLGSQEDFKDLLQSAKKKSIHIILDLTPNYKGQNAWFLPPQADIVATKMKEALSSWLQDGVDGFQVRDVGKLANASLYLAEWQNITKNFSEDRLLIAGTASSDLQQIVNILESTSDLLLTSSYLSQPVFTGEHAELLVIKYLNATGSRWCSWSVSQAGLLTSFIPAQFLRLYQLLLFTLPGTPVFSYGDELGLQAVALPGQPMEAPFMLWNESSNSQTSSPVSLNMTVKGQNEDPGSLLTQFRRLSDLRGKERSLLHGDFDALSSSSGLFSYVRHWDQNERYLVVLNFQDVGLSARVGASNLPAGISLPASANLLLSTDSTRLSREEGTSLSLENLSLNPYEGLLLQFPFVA

SMILES | Log Doct 7.4 [1] | Log Poct [1] | fn (%) [2] | Brain Kin [4] | Extraction (unbound) [4] | Brain vascular extraction (total) [4] | Log Poct [5] | Log Doct pH=7.4 [5] | fu,.p [6] | Brain Vu,br [7] | half-life ([3]; brain) | Log Pc [9] | Pc [9] | PcS [9] | Log Po [9] | Po [9] | Log PoS [9] | PoS [9] | other results
N[C@H](C(=O)O)[C@@H]1CC(Cl)=NO1 [Acivicin] | −2.63 | −0.31 | – | – | – | – | – | – | – | – | – | – | – | – | – | – | – | – | LogPS (Lat-1; [10]): −3.32; PS (Lat-1; [11]): 0.000479 mL/s/g
Nc1ncnc2nc[nH]c12 [Adenine] | −2.12 | – | – | – | – | – | – | – | – | – | – | – | – | – | – | – | – | – | –
Nc1ncnc2c1ncn2[C@@H]1O[C@H](CO)[C@@H](O)[C@H]1O [Adenosine] | −1.02 | – | – | – | – | – | – | – | – | – | – | – | – | – | – | – | – | – | –
C[N+](C)(C)CCO [Choline] | −3.70 | – | – | – | – | – | – | – | – | – | – | – | – | – | – | – | – | – | Log PS (Choline transporter): −2.89; PS (Choline transporter; S 20 s): 0.0013 mL/s/g
O=C(CO)[C@@H](O)[C@H](O)[C@H](O)CO [Fructose] | – | – | 100% | 5.74e-06 mL/s/g | 2.39E-04% | 2.39E-04% | −3.20 | −3.20 | 1.00 | 0.08 mL/g | – | – | – | – | – | – | – | – | half-life [3]: 168 min; Log Pc ([8]; Pc in cm/s): −7.24; Log Po ([8]; Po in cm/s): −7.24; Log PoS ([8]; PoS in mL/s/g): −5.24; Pc ([8]; S assumed 100 cm^2/g): 0.0574 ×10⁻⁶ cm/s; Po ([8]; S assumed 100 cm^2/g): 0.0574 ×10⁻⁶ cm/s; PoS ([8]; brain vascular intrinsic PoS): 5.74e-06 mL/s/g; PcS ([8]; cerebral cortex, flow 0.1–[…], S = physiological saline, AB = artificial blood): 5.74e-06 mL/s/g; PoS ([8]; intrinsic PS of neutral solute, PoS = PcS/fn, flow 0.1–[…]): 5.74e-06 mL/s/g
NCC1(CC(=O)O)CCCCC1 [Gabapentin] | −1.4 | 1.19 | – | – | – | – | – | – | – | – | – | – | – | – | – | – | – | – | LogPS (Lat-1; rat, in vivo, pH 7.4): −2.33; PS (Lat-1; rat, in vivo, pH 7.4): 0.00473 mL/s/g
Nc1ccn([C@@H]2O[C@H](CO)[C@@H](O)C2(F)F)c(=O)n1 [Gemcitabine] | −1.36 | −0.470 | – | – | – | – | – | – | – | – | – | – | – | – | – | – | – | – | –
COc1ccc2c(c1)c(CC(=O)O)c(C)n2C(=O)c1ccc(Cl)cc1 [Indomethacin] | – | – | 0.05% | 4.37e-05 mL/s/g | 27.3% | 0.18% | 3.51 | 0.68 | 5.7E−03 | 13.0 mL/g | 19.6 min | −4.12 | 76.6 ×10⁻⁶ cm/s | 0.0077 mL/s/g | −0.84 | 0.15 cm/s | – | – | –
Cc1c(I)c(=O)n(-c2ccccc2)n1C [Iodoantipyrine] | – | – | 100% | 0.0231 mL/s/g | 99.8% | 96.1% | 1.27 | 1.27 | 0.50 | 2 mL/g | 0.5 min | −2.81 | 1560 ×10⁻⁶ cm/s | 0.16 mL/s/g | −2.81 | 0.00156 cm/s | −0.81 | 0.16 mL/s/g | BBB PcS [9]: 0.156 mL/s/g; Percentage printed beside the uptake curves (measure not given) [9]: 79%; Peak flow rate for 90% E ([4]; protein-free physiologic saline pH 7.4): 4.1 mL/min/g; Maximal flow—90% extraction, PcS/2.3 ([4]; protein-free saline, pH 7.4): 0.068 mL/s/g
CNC[C@H](N)C(=O)O [L-BMAA] | −3.4 | −0.85 | – | – | – | – | – | – | – | – | – | – | – | – | – | – | – | – | LogPS (Lat-1; [10]): −3.27; PS (Lat-1; [11]): 0.000542 mL/s/g
N[C@@H](Cc1ccc(O)c(O)c1)C(=O)O [L-DOPA] | −2.7 | −0.22 | – | – | – | – | – | – | – | – | – | – | – | – | – | – | – | – | LogPS (Lat-1; [10]): −1.99; PS (Lat-1; [11]): 0.0102 mL/s/g
CC(C)C[C@H](N)C(=O)O [L-Leucine] | 0.73 | – | – | – | – | – | – | – | – | – | – | – | – | – | – | – | – | – | LogPS (Lat-1; [10]): −1.45; PS (Lat-1; [11]): 0.0354 mL/s/g
N[C@@H](Cc1ccccc1)C(=O)O [L-Phenylalanine] | −1.46 | 1.110 | – | – | – | – | – | – | – | – | – | – | – | – | – | – | – | – | LogPS (Lat-1; [10]): −1.108; PS (Lat-1; [11]): 0.078 mL/s/g
OC[C@@H](O)[C@@H](O)[C@H](O)[C@H](O)CO [Mannitol] | – | – | 100% | 8.8e-06 mL/s/g | 3.67E-04% | 3.67E-04% | −3.10 | −3.10 | 1.00 | 0.08 mL/g | 109 min | −7.06 | 0.088 ×10⁻⁶ cm/s | 8.8e-06 mL/s/g | −7.06 | 8.8e-08 cm/s | −5.06 | 8.8e-06 mL/s/g | –
N[C@@H](Cc1ccc(N(CCCl)CCCl)cc1)C(=O)O [Melphalan (para)] | −1.03 | 1.79 | – | – | – | – | – | – | – | – | – | – | – | – | – | – | – | – | –
Fc1ccc([C@@H]2CCNC[C@H]2COc2ccc3c(c2)OCO3)cc1 [Paroxetine] | – | – | 0.32% | 0.00164 mL/s/g | 99.4% | 7.4% | 3.50 | 1.00 | 0.015 | 852.0 mL/g | 83 min | −2.91 | 1230 ×10⁻⁶ cm/s | 0.12 mL/s/g | −0.41 | 0.39 cm/s | 1.59 | 39.0 mL/s/g | BBB PcS [9]: 0.12 ± 0.02 mL/s/g
CCCC(C)C1(CC)C(=O)NC(=O)NC1=O (stereo not shown) [Pentobarbital] | – | – | 75.1% | – | – | – | 2.08 | 2.01 | 0.60 | – | – | −3.35 | 450 ×10⁻⁶ cm/s | 0.045 mL/s/g | −3.22 | 0.000599 cm/s | −1.22 | 0.0599 mL/s/g | half-life [3]: 1.44 min; half-life ([3]; plasma): 1.4 min; half-life (in vivo): 1.15 min
O=C1NC(=O)C(c2ccccc2)(c2ccccc2)N1 [Phenytoin] | – | – | 88.4% | 0.00364 mL/s/g | 66.6% | 15.2% | 2.24 | 2.17 | 0.15 | 12.7 mL/g | 6.02 min | −3.58 | 263 ×10⁻⁶ cm/s | 0.026 mL/s/g | −3.53 | 0.000298 cm/s | −1.53 | 0.0298 mL/s/g | –
CC(C)C[C@H](CN)CC(=O)O [Pregabalin] | −1.75 | 1.12 | – | – | – | – | – | – | – | – | – | – | – | – | – | – | – | – | LogPS (Lat-1; rat, in vivo, pH 7.4): −3.01; PS (Lat-1; rat, in vivo, pH 7.4): 0.000976 mL/s/g
OC[C@H]1O[C@H](OC[C@H]2O[C@H](O[C@]3(CO)O[C@H](CO)[C@@H](O)[C@@H]3O)[C@H](O)[C@@H](O)[C@@H]2O)[C@H](O)[C@@H](O)[C@H]1O [Raffinose] | – | – | 100% | 9.5e-07 mL/s/g | 3.96E-05% | 3.96E-05% | −3.89 | −3.89 | 1.00 | 0.03 mL/g | 405 min | −8.02 | 0.0095 ×10⁻⁶ cm/s | 9.5e-07 mL/s/g | −8.02 | 9.5e-09 cm/s | −6.02 | 9.5e-07 mL/s/g | –
COC(=O)[C@H]1[C@H]2C[C@@H]3c4[nH]c5cc(OC)ccc5c4CCN3C[C@H]2C[C@@H](OC(=O)c2cc(OC)c(OC)c(OC)c2)[C@@H]1OC [Reserpine] | – | – | 83.37% | 0.00749 mL/s/g | 97.6% | 31.2% | 1.54 | 1.46 | 0.10 | 5 mL/g | 0.77 min | −3.05 | 898 ×10⁻⁶ cm/s | 0.09 mL/s/g | −2.97 | 0.00108 cm/s | −0.97 | 0.11 mL/s/g | –
Cn1nnc2c(C(N)=O)ncn2c1=O [Temozolamide] | – | – | 100% | 0.00464 mL/s/g | 4.3% | 5.3% | −1.04 | −1.04 | 0.80 | 1.05 mL/g | 7.65 min | −4.79 | 16.3 ×10⁻⁶ cm/s | 0.0016 mL/s/g | −4.79 | 1.63e-05 cm/s | −2.79 | 0.00163 mL/s/g | –
CCCC(CCC)C(=O)O [Valproic acid] | – | – | 0.16% | 0.0016 mL/s/g | 31.8% | 6.7% | 2.71 | 0.21 | 0.18 | 1.43 mL/g | 1.86 min | −4.04 | 91.9 ×10⁻⁶ cm/s | 0.0092 mL/s/g | −1.54 | 0.0292 cm/s | 0.46 | 2.92 mL/s/g | –
